Assay results from patent US11590109B2 (priority 2016, dated 2023).

Columns and labels:
[1] = tested on: JEV (Japanese encephalitis virus); assay: Inhibition of viral replication (CPE) at cellular level, JEV in Vero; conditions: for SI (TC50/IC50): JEV in host cell Vero; for IC50: Japanese encephalitis virus, Vero
[2] = tested on: EV71 (hand-foot-and-mouth virus); assay: microbe, parasite or virus in culture; conditions: Enterovirus A
H3N2 (influenza virus) [3] = conditions: H3N2 in host cell MDCK
in vitro [4] = conditions: dog
[5] = tested on: EV71 (hand-foot-and-mouth virus); conditions: for SI (TC50/IC50): EV71 in host cell RD
influenza virus = assay: microbe, parasite or virus in culture; assay type: cell-based; conditions: unidentified influenza virus, MDCK, read-out: inhibitory effect on influenza virus
H1N1 (influenza virus) [6] = assay: microbe, parasite or virus in culture; conditions: Influenza A virus, H1N1, MDCK
[7] = Determination of TC50 (half toxicity concentration) in RD cells; assay type: cell-based; conditions: human, host cell RD, EV71 table
H1N1 (influenza virus) [8] = conditions: H1N1 in host cell MDCK
H7N9 (influenza virus) [9] = assay: microbe, parasite or virus in culture; conditions: Influenza A virus, H7N9, MDCK
H3N2 (influenza virus) [10] = assay: microbe, parasite or virus in culture; conditions: Influenza A virus, H3N2, MDCK
Zika Virus = assay: Inhibition of viral replication (CPE) at cellular level, Zika Virus in Vero; conditions: for SI (TC50/IC50): Zika Virus in host cell Vero; for IC50: Zika virus, Vero
in vitro [11] = conditions: African green monkey
[12] = tested on: RSV (human respiratory syncytial virus); assay: Inhibition of viral replication (CPE) at cellular level, RSV in Vero; conditions: for SI (TC50/IC50): RSV in host cell Vero; for IC50: human respiratory syncytial virus, Vero
H7N9 (influenza virus) [13] = conditions: H7N9 in host cell MDCK
[14] = tested on: H7N9 avian influenza virus; assay type: in vivo; conditions: lethal dose H7N9 (1MLD50) nasal, Compound 16 10 mg/kg, Oseltamivir 20 mg/kg, intraperitoneal, once a day for first 5 days, FIG. 4
[15] = tested on: Dengue Virus 2 (type 2 dengue virus); assay: Inhibition of viral replication (CPE) at cellular level, Dengue Virus 2 in Vero; assay type: cell-based; conditions: Dengue Virus 2 in host cell Vero; for IC50: CPE
From the text: Activity Test for Inhibition of Viral Replication at Cellular Level […]
The present inventors tested inhibitory effects of the compound of the present invention on cytopathic effects (CPE) caused by viral infection on mammalian cells.
Half-inhibitory concentration IC50 and half toxic concentration TC50 of the compound against Dengue Virus 2 (type 2 dengue virus) in host cell Vero (African green monkey kidney cell).

[16] = TC50, host cell Vero, Dengue Virus 2 table
[17] = TC50, host cell Vero, RSV table
[18] = TC50, host cell Vero, Zika Virus table

O=C(O)c1ccccc1/C=N/Nc1nc(-c2ccccc2Cl)cs1 [Compound 16, (E)-4-(2-chlorophenyl)-2-(2-carboxybenzylidenehydrazino)thiazole]
SI (TC50/IC50) [1]: 100
IC50 [1]: 200 nM
IC50 [2]: 300 nM
SI (TC50/IC50) (H3N2 (influenza virus) [3]): >250
CC50 (in vitro [4]): > 50 µM
SI (TC50/IC50) [5]: 3.3
IC50 (influenza virus): ~2000 nM
IC50 (H1N1 (influenza virus) [6]): 500 nM
CC50 [7]: 1000 nM
SI (TC50/IC50) (H1N1 (influenza virus) [8]): >100
IC50 (H7N9 (influenza virus) [9]): 1200 nM
IC50 (H3N2 (influenza virus) [10]): 200 nM
SI (TC50/IC50) (Zika Virus): 133
IC50 (Zika Virus): 150 nM
CC50 (in vitro [11]; [16]): 20 µM
CC50 (in vitro [11]; [17]): 20 µM
CC50 (in vitro [11]; [18]): 20 µM
inhibitory effects on human respiratory syncytial virus RSV ([12]; FIG. 3): a certain inhibitory effects
SI (TC50/IC50) [12]: 4
IC50 [12]: 5 µM
SI (TC50/IC50) (H7N9 (influenza virus) [13]): >41.7
therapeutic effect, recovery in the body weight of infected mice [14]: therapeutic effects similar to the positive drug Oseltamivir
SI (TC50/IC50) [15]: 167
IC50 [15]: 120 nM

CN(/N=C/c1ccc(F)cc1C(=O)O)c1nc(-c2ccccc2Cl)cs1 [Compound 10, (E)-4-(2-chlorophenyl)-2-[1-methyl-2-(2-carboxyl-4-fluorobenzylidene)hydrazino]thiazole]
SI (TC50/IC50) [1]: 216
IC50 [1]: 60 nM
IC50 [2]: 50 nM
SI (TC50/IC50) (H3N2 (influenza virus) [3]): 320
CC50 (in vitro [4]; TC50): 32 µM
SI (TC50/IC50) [5]: 10
inhibitory effects on human hand-foot-mouth virus EV71 ([5]; FIG. 2): a certain inhibitory effects
IC50 (H1N1 (influenza virus) [6]): 210 nM
CC50 [7]: 500 nM
SI (TC50/IC50) (H1N1 (influenza virus) [8]): 233
IC50 (H7N9 (influenza virus) [9]): 280 nM
IC50 (H3N2 (influenza virus) [10]): 100 nM
SI (TC50/IC50) (Zika Virus): 350
IC50 (Zika Virus): 60 nM
CC50 (in vitro [11]): 13 µM
CC50 (in vitro [11]; [16]): 23 µM
CC50 (in vitro [11]; [17]): 19 µM
CC50 (in vitro [11]; [18]): 21 µM
SI (TC50/IC50) [12]: 3.6
IC50 [12]: 5.21 µM
SI (TC50/IC50) (H7N9 (influenza virus) [13]): 161
SI (TC50/IC50) [15]: 460
IC50 [15]: 50 nM
